Experimental data from US20020137929A1, “1 - (3-heterocyclylphenyl) isothiourea, -isourea, -guanidine and -amidine herbicidal agents” (Intellectual Property Department, BASF Aktiengesellschaft, priority 1998, published 2002).

Legend:
[1] = system: ORYSAT (Rice, Tebonnet); assay: Preemergence herbicidal evaluation; type: in vivo, Oryza sativa, (L.) Tebonnet; conditions: rated 4-5 weeks after treatment
In short: (§1)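 Sown cups got a single aqueous acetone spray of test compound (roughly 0.0156–0.500 kg/ha) before seedlings emerged. Evaluation, 4–5 weeks on, used a 0–9 visual scale covering plant stand, vigor, size, malformation, chlorosis and general appearance compared with controls.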

[2] = system: SETVI (Foxtail, Green); assay: Preemergence herbicidal evaluation; type: in vivo, Setaria viridis; conditions: rated 4-5 weeks after treatment
In short: as §1

[3] = system: CYPIR (Rice Flatsedge); assay: Preemergence weed control under flooded paddy conditions; type: in vivo, Cyperus iria; conditions: rated 3-4 weeks after treatment
In short: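 Ratings on a 0-9 visual scale cover stand, vigor, malformation, size, chlorosis and overall appearance relative to a control, taken three to four weeks post-treatment. Application was into flood water over freshly sown silt loam at roughly 0.0313 to 0.500 kg/ha.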

[4] = system: ECHCG (Barnyardgrass); assay: Postemergence herbicidal evaluation; type: in vivo, Echinochloa crus-galli; conditions: postemergence
In short: (§2)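 First, seedlings were raised for around two weeks. Next, test material in 50/50 acetone/water containing 0.5% TWEEN 20 was sprayed through a nozzle at 40 psi, equivalent to about 0.0156–0.500 kg/ha. Finally, after 4–5 weeks in the greenhouse, plants were rated 0–9.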

[5] = system: GALAP (Galium); assay: Preemergence herbicidal evaluation; type: in vivo, Galium aparine; conditions: rated 4-5 weeks after treatment
In short: as §1

[6] = system: MOOVA (Monochoria); assay: Preemergence weed control under flooded paddy conditions; type: in vivo, Monochoria vaginalis; conditions: rated 3-4 weeks after treatment
In short: (§3)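 Seeds or propagules sown in silt loam kept flooded 1.5-3 cm; compounds in 50/50 acetone/water pipetted into flood water at about 0.0313 to 0.500 kg/ha. Greenhouse; visual 0-9 rating versus untreated control 3-4 weeks after treatment.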

[7] = system: TRZAWR (Wheat, Winter, cv Riband); assay: Preemergence herbicidal evaluation; type: in vivo, Triticum aestivum; conditions: rated 4-5 weeks after treatment
In short: as §1

[8] = system: CHEAL (Lambsquarters, Common); assay: Postemergence herbicidal evaluation; type: in vivo, Chenopodium album; conditions: postemergence
In short: as §2

[9] = system: ZEAMX (Corn, Field); assay: Preemergence herbicidal evaluation; type: in vivo, Zea mays; conditions: rated 4-5 weeks after treatment
In short: as §1

[10] = system: GLXMAW (Soybean, Williams); assay: Preemergence herbicidal evaluation; type: in vivo, Glycine max, (L.) Merr. cv Williams; conditions: rated 4-5 weeks after treatment
In short: as §1

[11] = system: CASOB (Sicklepod); assay: Postemergence herbicidal evaluation; type: in vivo, Cassia obtusifolia; conditions: postemergence
In short: as §2

[12] = system: SAGPY (Arrowhead (Pygmaea)); assay: Preemergence weed control under flooded paddy conditions; type: in vivo, Sagittaria pygmaea; conditions: rated 3-4 weeks after treatment
In short: as §3

[13] = system: ORYSAT (Rice, Tebonnet); assay: Postemergence herbicidal evaluation; type: in vivo, Oryza sativa, (L.) Tebonnet; conditions: postemergence
In short: as §2

Cn1c(C(F)(F)F)cc(=O)n(-c2cc(N=C3SCC(=O)N3C3CCCC3)c(Cl)cc2F)c1=O [Compound 166, 3-{4-Chloro-5-[(3-cyclopentyl-4-oxo-2-thiazolidinylidene)amino]-2-fluorophenyl}-1-methyl-6-(trifluoromethyl)-2,4(1H,3H)-pyrimidinedione]
Preemergence herbicidal rating ORYSAT ([1]; 0.0156 kg/ha): 0.0 | Preemergence herbicidal rating ORYSAT ([1]; 0.0313 kg/ha): 0.0 | Preemergence herbicidal rating ORYSAT ([1]; 0.0625 kg/ha): 1.0 | Preemergence herbicidal rating ORYSAT ([1]; 0.1250 kg/ha): 1.0 | Preemergence herbicidal rating ORYSAT ([1]; 0.2500 kg/ha): 1.0 | Preemergence herbicidal rating ORYSAT ([1]; 0.5000 kg/ha): 5.0 | Preemergence herbicidal rating SETVI ([2]; 0.0156 kg/ha): 0.0 | Preemergence herbicidal rating SETVI ([2]; 0.0313 kg/ha): 0.0 | Preemergence herbicidal rating SETVI ([2]; 0.0625 kg/ha): 1.0 | Preemergence herbicidal rating SETVI ([2]; 0.1250 kg/ha): 6.0 | Preemergence herbicidal rating SETVI ([2]; 0.2500 kg/ha): 6.0 | Preemergence herbicidal rating SETVI ([2]; 0.5000 kg/ha): 9.0 | herbicidal effect rating, CYPIR ([3]; 0.0313 kg/ha): 2.0 | herbicidal effect rating, CYPIR ([3]; 0.0625 kg/ha): 2.0 | herbicidal effect rating, CYPIR ([3]; 0.1250 kg/ha): 6.0 | herbicidal effect rating, CYPIR ([3]; 0.2500 kg/ha): 9.0 | Herbicidal rating ECHCG ([4]; rate 0.0156 kg/ha): 0.0 | Herbicidal rating ECHCG ([4]; rate 0.0313 kg/ha): 0.0 | Herbicidal rating ECHCG ([4]; rate 0.0625 kg/ha): 1.0 | Herbicidal rating ECHCG ([4]; rate 0.1250 kg/ha): 2.0 | Preemergence herbicidal rating GALAP ([5]; 0.0156 kg/ha): 0.0 | Preemergence herbicidal rating GALAP ([5]; 0.0313 kg/ha): 0.0 | Preemergence herbicidal rating GALAP ([5]; 0.0625 kg/ha): 2.0 | Preemergence herbicidal rating GALAP ([5]; 0.1250 kg/ha): 5.0 | Preemergence herbicidal rating GALAP ([5]; 0.2500 kg/ha): 7.0 | Preemergence herbicidal rating GALAP ([5]; 0.5000 kg/ha): 8.0 | herbicidal effect rating, MOOVA ([6]; 0.0313 kg/ha): 9.0 | herbicidal effect rating, MOOVA ([6]; 0.0625 kg/ha): 9.0 | herbicidal effect rating, MOOVA ([6]; 0.1250 kg/ha): 9.0 | herbicidal effect rating, MOOVA ([6]; 0.2500 kg/ha): 9.0 | Preemergence herbicidal rating TRZAWR ([7]; 0.0156 kg/ha): 0.0 | Preemergence herbicidal rating TRZAWR ([7]; 0.0313 kg/ha): 0.0 | Preemergence herbicidal rating TRZAWR ([7]; 0.0625 kg/ha): 1.0 | Preemergence herbicidal rating TRZAWR ([7]; 0.1250 kg/ha): 1.0 | Preemergence herbicidal rating TRZAWR ([7]; 0.2500 kg/ha): 1.0 | Preemergence herbicidal rating TRZAWR ([7]; 0.5000 kg/ha): 3.0 | Herbicidal rating CHEAL ([8]; rate 0.0156 kg/ha): 0.0 | Herbicidal rating CHEAL ([8]; rate 0.0313 kg/ha): 1.0 | Herbicidal rating CHEAL ([8]; rate 0.0625 kg/ha): 4.0 | Herbicidal rating CHEAL ([8]; rate 0.1250 kg/ha): 7.0 | Preemergence herbicidal rating ZEAMX ([9]; 0.0156 kg/ha): 0.0 | Preemergence herbicidal rating ZEAMX ([9]; 0.0313 kg/ha): 0.0 | Preemergence herbicidal rating ZEAMX ([9]; 0.0625 kg/ha): 1.0 | Preemergence herbicidal rating ZEAMX ([9]; 0.1250 kg/ha): 1.0 | Preemergence herbicidal rating ZEAMX ([9]; 0.2500 kg/ha): 3.0 | Preemergence herbicidal rating ZEAMX ([9]; 0.5000 kg/ha): 6.0 | Preemergence herbicidal rating GLXMAW ([10]; 0.0156 kg/ha): 0.0 | Preemergence herbicidal rating GLXMAW ([10]; 0.0313 kg/ha): 2.0 | Preemergence herbicidal rating GLXMAW ([10]; 0.0625 kg/ha): 2.0 | Preemergence herbicidal rating GLXMAW ([10]; 0.1250 kg/ha): 2.0 | Preemergence herbicidal rating GLXMAW ([10]; 0.2500 kg/ha): 6.0 | Preemergence herbicidal rating GLXMAW ([10]; 0.5000 kg/ha): 6.0 | Herbicidal rating CASOB ([11]; rate 0.0156 kg/ha): 0.0 | Herbicidal rating CASOB ([11]; rate 0.0313 kg/ha): 0.0 | Herbicidal rating CASOB ([11]; rate 0.0625 kg/ha): 0.0 | Herbicidal rating CASOB ([11]; rate 0.1250 kg/ha): 1.0 | herbicidal effect rating, SAGPY ([12]; 0.0313 kg/ha): 2.0 | herbicidal effect rating, SAGPY ([12]; 0.0625 kg/ha): 4.0 | herbicidal effect rating, SAGPY ([12]; 0.1250 kg/ha): 5.0 | herbicidal effect rating, SAGPY ([12]; 0.2500 kg/ha): 6.0 | Herbicidal rating ORYSAT ([13]; rate 0.0156 kg/ha): 1.0 | Herbicidal rating ORYSAT ([13]; rate 0.0313 kg/ha): 0.5 | Herbicidal rating ORYSAT ([13]; rate 0.0625 kg/ha): 1.5 | Herbicidal rating ORYSAT ([13]; rate 0.1250 kg/ha): 2.0
